# Source: patent publication US20150018384A1, “TREATMENT FOR HIGH CHOLESTEROL” (FibroGen, Inc., priority 2012, published 2015)
# Marks after values point to notes of the source that are not given here.
# Key:
# [1] = system: subjects with end-stage renal disease (ESRD) receiving maintenance hemodialysis; assay: Study 2: phase 2 study of compound A vs EPO in ESRD subjects on maintenance hemodialysis; type: in vivo, human
# Procedure: Total cholesterol and lipid panels were measured by standard procedures.
# Total cholesterol was measured from all subjects in Study 1 or Study 2 as part of the chemistry panel at prespecified time points.
# Frozen serum samples, collected from subjects in Study 1 or Study 2, were selected for the lipid panel analysis based on the following criteria: 1) with matched baseline (D1W1) and; 2) at least one other time point. The complete lipid panel includes: total cholesterol (TC), HDL, LDL-measured, Triglycerides and VLDL (Calculated). Ratio of HDL/LDL or LDL/HDL were analyzed.
# A total of n=20 subjects were selected and assayed for the complete lipid panel as described above. Subjects on this study protocol were not required to fast nor have any diet restrictions.
# cynomolgus monkeys = assay: Cholesterol levels after repeated oral administration in monkey toxicity studies; type: in vivo, cynomolgus monkey
# Procedure: During these studies monkeys were fasted prior to each blood collection. Plasma samples were then evaluated at pre-dose and at different time-points for levels of total cholesterol.
# Sprague-Dawley rats = assay: Single oral dose lipid panel in rats; type: in vivo, rat; conditions: fasted rats, single oral dose 60 mg/kg, after 24 hours
# Procedure: Blood samples were collected at baseline (pre-dose) and approximately 24 hours following dosing to determine levels of cholesterol, HDL, LDL and the LDL/HDL ratio.
# [2] = system: Cholesterol Biosynthesis Genes in the Mouse Liver; assay: Microarray expression of cholesterol biosynthesis genes in mouse liver; type: in vivo; conditions: 90 mg/kg oral
# Procedure, shortened: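 Mouse livers taken 4 h or 8 h post-treatment; RNA from paired animals pooled and hybridized to mouse 430A 2.0 arrays, GC-RMA processed, outlier arrays removed by PCA. Values are fold-change versus timepoint-matched vehicle controls from the same study; below 1.0 means reduced liver RNA.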
# [3] = system: subjects with end stage renal disease (ESRD); assay: ESRD subjects switched from epoetin alfa to Compound A or continued on epoetin alfa; type: in vivo, human
# [4] = BL total cholesterol >200 mg/dL, visit D1W1 (baseline)
# [5] = BL total cholesterol >200 mg/dL, visit W9
# [6] = BL total cholesterol ≦200 mg/dL, visit D1W1 (baseline)
# [7] = BL total cholesterol ≦200 mg/dL, visit W9
# [8] = n=20, 9 weeks vs baseline, FIG. 8A
# [9] = baseline, Compound A 3 cohorts n=74, Epoetin alfa n=22
compound,measurement,setting,value
"Cc1nc(C(=O)NCC(=O)O)c(O)c2ccc(Oc3ccccc3)cc12 [Compound A, [(4-Hydroxy-1-methyl-7-phenoxy-isoquinoline-3-carbonyl)-amino]-acetic acid]",reduction in total cholesterol by baseline total cholesterol ≦200 or >200 mg/dL,"[1]; 19-week study, FIGS. 6A and B",appears to be larger for the subjects with higher cholesterol at BL
same,LDL,[1]; [4],203.40
same,LDL change from BL,[1]; [4],0.00
same,TC,[1]; [4],275.80
same,TC change from BL,[1]; [4],0.00
same,LDL,[1]; [5],164.20
same,LDL change from BL,[1]; [5],−39.20
same,TC,[1]; [5],239.20
same,TC change from BL,[1]; [5],−36.60
same,LDL,[1]; [6],81.20
same,LDL change from BL,[1]; [6],0.00
same,TC,[1]; [6],157.90
same,TC change from BL,[1]; [6],0.00
same,LDL,[1]; [7],62.20
same,LDL change from BL,[1]; [7],−19.00
same,TC,[1]; [7],128.20
same,TC change from BL,[1]; [7],−29.70
same,hemoglobin levels,"[1]; ESRD patients on dialysis, 0.8 to 3.0 mg/kg three times a week",effectively corrected hemoglobin levels
same,"total cholesterol, subjects with or without prior history of hyperlipidemia and/or hypercholesterolemia","[1]; Study 2 (6 weeks), FIG. 4",reduced the total cholesterol level of subjects in similar fashion
same,"HDL, lipid panel",[1]; [8],slight decrease
same,"LDL, lipid panel",[1]; [8],significant reduction
same,"VLDL, lipid panel",[1]; [8],significant reduction
same,"total cholesterol, lipid panel",[1]; [8],significant reduction
same,"triglycerides, lipid panel",[1]; [8],significant reduction
same,change in total cholesterol from baseline over time,"[1]; treated for 19 weeks, FIG. 2",significant decrease in total cholesterol
same,total cholesterol levels,"cynomolgus monkeys; 22-week study, intermittent oral dosing 1, 10, 30 and 40 mg/kg, day 28 to day 152",dose-dependent decrease in cholesterol levels
same,total cholesterol levels,"cynomolgus monkeys; 22-week study, intermittent oral dosing 1, 10, 30 and 40 mg/kg, day 28 to day 152, listed as compound A",dose dependent decrease in total cholesterol
same,total cholesterol levels,"cynomolgus monkeys; 28-Day study, daily oral dosing 1, 10 and 30 mg/kg, day 28",dose-dependent decrease in cholesterol levels
same,total cholesterol levels,"cynomolgus monkeys; 28-Day study, daily oral dosing 1, 10 and 30 mg/kg, day 28, listed as compound A",dose dependent decrease in total cholesterol
same,cholesterol,"cynomolgus monkeys; additional monkey study, up to one year",decreases in cholesterol were observed and maintained for up to one year
same,HDL decrease from baseline,Sprague-Dawley rats,21 ± 7 mg/dL
same,LDL decrease from baseline,Sprague-Dawley rats,11 ± 3 mg/dL
same,total cholesterol decrease from baseline,Sprague-Dawley rats,26 ± 9 mg/dL
same,3-hydroxy-3-methylglutaryl-Coenzyme A reductase (Hmgcr) RNA expression,[2]; 4 h,0.45 fold-change
same,3-hydroxy-3-methylglutaryl-Coenzyme A synthase 1 (Hmgcs1) RNA expression,[2]; 4 h,0.94 fold-change
same,7-dehydrocholesterol reductase (Dhcr7) RNA expression,[2]; 4 h,1.03 fold-change
same,NAD(P) dependent steroid dehydrogenase-like (Nsdhl) RNA expression,[2]; 4 h,0.86 fold-change
same,acetyl-Coenzyme A acetyltransferase 2 (Acat2) RNA expression,[2]; 4 h,1.24 fold-change
same,"cytochrome P450, family 51 (Cyp51) RNA expression",[2]; 4 h,0.69 fold-change
same,farnesyl diphosphate farnesyl transferase 1 (Fdft1) RNA expression,[2]; 4 h,0.68 fold-change
same,farnesyl diphosphate synthetase (Fdps) RNA expression,[2]; 4 h,0.87 fold-change
same,isopentenyl-diphosphate delta isomerase (Idi1) RNA expression,[2]; 4 h,0.73 fold-change
same,lanosterol synthase (Lss) RNA expression,[2]; 4 h,0.74 fold-change
same,mevalonate (diphospho) decarboxylase (Mvd) RNA expression,[2]; 4 h,0.68 fold-change
same,mevalonate kinase (Mvk) RNA expression,[2]; 4 h,1.00 fold-change
same,phosphomevalonate kinase (Pmvk) RNA expression,[2]; 4 h,1.27 fold-change
same,squalene epoxidase (Sqle) RNA expression,[2]; 4 h,0.61 fold-change
same,sterol-C4-methyl oxidase-like (Sc4mol) RNA expression,[2]; 4 h,0.63 fold-change
same,"sterol-C5-desaturase (fungal ERG3, delta-5-desaturase) homolog (S. cerevisae) (Sc5d) RNA expression",[2]; 4 h,1.09 fold-change
same,3-hydroxy-3-methylglutaryl-Coenzyme A reductase (Hmgcr) RNA expression,[2]; 8 h,0.43 fold-change
same,3-hydroxy-3-methylglutaryl-Coenzyme A synthase 1 (Hmgcs1) RNA expression,[2]; 8 h,0.38 fold-change
same,7-dehydrocholesterol reductase (Dhcr7) RNA expression,[2]; 8 h,0.61 fold-change
same,NAD(P) dependent steroid dehydrogenase-like (Nsdhl) RNA expression,[2]; 8 h,0.62 fold-change
same,acetyl-Coenzyme A acetyltransferase 2 (Acat2) RNA expression,[2]; 8 h,0.50 fold-change
same,"cytochrome P450, family 51 (Cyp51) RNA expression",[2]; 8 h,0.45 fold-change
same,farnesyl diphosphate farnesyl transferase 1 (Fdft1) RNA expression,[2]; 8 h,0.43 fold-change
same,farnesyl diphosphate synthetase (Fdps) RNA expression,[2]; 8 h,0.36 fold-change
same,isopentenyl-diphosphate delta isomerase (Idi1) RNA expression,[2]; 8 h,0.51 fold-change
same,lanosterol synthase (Lss) RNA expression,[2]; 8 h,0.44 fold-change
same,mevalonate (diphospho) decarboxylase (Mvd) RNA expression,[2]; 8 h,0.37 fold-change
same,mevalonate kinase (Mvk) RNA expression,[2]; 8 h,0.53 fold-change
same,phosphomevalonate kinase (Pmvk) RNA expression,[2]; 8 h,0.63 fold-change
same,squalene epoxidase (Sqle) RNA expression,[2]; 8 h,0.43 fold-change
same,sterol-C4-methyl oxidase-like (Sc4mol) RNA expression,[2]; 8 h,0.46 fold-change
same,"sterol-C5-desaturase (fungal ERG3, delta-5-desaturase) homolog (S. cerevisae) (Sc5d) RNA expression",[2]; 8 h,0.38 fold-change
same,LDL cholesterol change,"[3]; Mean (±SD), six weeks, Compound A orally three times a week (n=74) or continued epoetin alfa (n=22)",−25 (22)** mg/dL
same,"Mean change in LDL-C, decrease","[3]; all cohorts, six weeks",25 mg/dL
same,Mean BL LDL Cholesterol,[3]; [9],101.71 mg/dL
same,Mean BL Total Cholesterol,[3]; [9],171.11 mg/dL
same,mean total cholesterol over the course of treatment,"[3]; both groups stratified by BL total cholesterol ≦200 or >200 mg/dL, FIG. 16",reduction
same,mean LDL-C over the course of treatment,"[3]; both groups stratified by BL total cholesterol ≦200 or >200 mg/dL, FIG. 17",reduction
same,HDL-C,[3]; six weeks,showed a decrease
